US20250302909A1, “METHODS FOR THE TREATMENT OF AGE-RELATED MACULAR DEGENERATION” (Stealth BioTherapeutics Inc., priority 2024, published 2025)

Legend:
[1] = general statement on formulation
[2] = system: patients with at least one eye with dry AMD and GA
Description: Study design. In this Phase 2, randomized, placebo-controlled, double-masked, multicenter, safety and efficacy trial (ClinicalTrials.gov identifier NCT03891875), patients with at least one eye with dry AMD and GA were included. Visit 1 (screening visit) was performed no more than 14 days before the baseline visit (visit 2, day 1) (FIG. 1). […] (Allingham 2022; Mettu 2022). Patients were treated for 48 weeks, with assessments at day 1 and weeks 4, 8, 12, 24, 36, and 48 (visits 2 to 8) plus a final safety follow-up visit 4 weeks after the last day of study treatment (week 52; visit 9). Patient diaries and vial counts were used and reviewed to verify compliance.
Safety/tolerability evaluations included assessment of the incidence and severity of adverse events/adverse device effects, incidence of conversion to MNV, changes from baseline in vital sign measurements, electrocardiograms, clinical evaluations, clinical laboratory evaluations, slit lamp examination, and dilated fundus examination.
Statistical analysis. Safety and efficacy variables were summarized descriptively. The safety population included all patients receiving ≥1 dose of investigational product. […] Patients were analyzed according to the actual treatment received. A sample size of 180 patients provides ≥80% power to detect a 5-letter (1-line) change from baseline mean difference in LL BCVA between drug and placebo, assuming a standard deviation of 11 letters, at a two-sided alpha-level of 0.10, and proves approximately 80% power to detect a 30% difference in the change from baseline in square root transformed total GA area by OCT between drug and placebo, assuming a standard deviation of 0.2 mm/year, and an average change of 0.33 mm/year, at a two-sided alpha-level of 0.1.

[3] = system: patients with at least one eye with dry AMD and GA; assay: Phase 2 trial (NCT03891875): low-luminance best-corrected visual acuity (LL BCVA); format: in vivo, human; conditions: week 48
Description: (§1) Study design. […] (Allingham 2022; Mettu 2022).
Patients—Key inclusion criteria. The original protocol specified that adults ≥55 years of age with one eye with dry AMD and GA were eligible for study entry. However, a subsequent amendment to the protocol limited inclusion to patients with noncentral GA. Noncentral GA and area was determined primarily by fundus autofluorescence (FAF) and all noncentral GA lesions were required to be ≥150 μm from foveal center with preserved outer retinal structural details, as confirmed by the central reading center (BIRC, Boston MA). Noncentral GA was required to be ≥0.05 mm^2 and ≤10.16 mm^2 in size, and reside completely within the FAF 30- or 35-degree image. […] The fellow eye was allowed to have AMD with or without GA, MNV, central GA, or no pathology.
(§2) Study objectives and endpoints. The primary efficacy endpoints were changes from baseline in LL BCVA and in square root converted GA area as measured by OCT. Secondary efficacy endpoints included changes in ellipsoid zone integrity, categorical changes from baseline in LL-BCVA, changes from baseline in LL reading acuity (LLRA), BCVA, and GA area as measured by FAF. Additional predefined endpoints included change in center 1-mm and 2-mm mean EZ-RPE thickness, National Eye Institute Visual Function Questionnaire (VFQ-39) score, RA at standard light, visual function by the Low-Luminance Questionnaire (LLQ). For efficacy endpoints, the unit of analysis was study eye; in cases where both eyes were eligible for analysis, the study eye was the eye with the worse LL BCVA as determined at baseline (right eye was the study eye for equal LL BCVA). Ellipsoid zone integrity was measured as previously described on OCT utilizing a machine learning enhanced multi-layer segmentation platform that provided panmacular assessment of the EZ and RPE location (Sirici, et al., Ophthamol Surg Lasers Imaging Retina, 2022; Itoh, et al, Br J Ophthamol, 2016).
Statistical analysis. Safety and efficacy variables were summarized descriptively. […] Patients were analyzed according to the actual treatment received. […]

[4] = system: patients with at least one eye with dry AMD and GA; assay: Example 2: macular area of photoreceptor loss (tEZa) over time, linear mixed effects model; format: in vivo, human
Description: Data for this example was collected as part of the clinical study described above in Example 1. […] The primary analysis of rate of change in the macular area of photoreceptor loss over time was conducted using a linear mixed effects model assuming time as continuous and linear. […] Correlation between the repeated measurements of the same subject were accounted for by allowing an unstructured covariance matrix for the residuals. The outcome was the change in macular area of photoreceptor loss from baseline to each time point (time points being t=0, t=12 weeks, t=24 weeks, t=36 weeks and t=48 weeks) during the treatment period through week 48.

[5] = system: patients with at least one eye with dry AMD and GA; assay: Phase 2 trial: ellipsoid zone integrity (tEZa, pEZa) and GA on OCT; format: in vivo, human
Excerpt: as §1, §2
Statistical analysis. Safety and efficacy variables were summarized descriptively. […] Patients were analyzed according to the actual treatment received.
For continuous data, a mixed model for repeated measures was used for each eye separately (study eye), with fixed effects for treatment arm, study visit, the treatment arm-by-visit interaction, baseline as a covariate, a baseline-by-visit interaction, a random effect for subject, using an unstructured covariance structure. The primary time point for analysis was week 48 (end of treatment visit) and the mITT population was the primary analysis population using observed data. A family-wise alpha level of 0.1 was maintained for the primary endpoint family, using Hochberg's procedure at the primary time point of 48 weeks. […] Otherwise, the endpoint with the smaller p-value of the two was considered statistically significant, if statistically significant at the 0.05 (two-sided) level of significance.

[6] = Table 1, 117 randomized to elamipretide
[7] = clinical study, rate of growth of photoreceptor loss

Cc1cc(O)cc(C)c1C[C@H](NC(=O)[C@H](N)CCCNC(=N)N)C(=O)N[C@@H](CCCCN)C(=O)N[C@@H](Cc1ccccc1)C(N)=O (stereo in doubt) [elamipretide, H-D-Arg-2′,6′Dmt-Lys-Phe-NH2]
water solubility [1]: highly water soluble
Early discontinuation: Adverse event [2, 6]: 10 (8.5) n (%)
Early discontinuation: Withdrawal by subject [2, 6]: 20 (17.1) n (%)
Subjects leaving study early [2, 6]: 34 (29.1) n (%)
patients who discontinued the study early (percent) ([2]; of n=117 randomized): 29%
least-squares (LS) mean changes from baseline in LL BCVA ([3]; primary endpoint, 40 mg subcutaneous once daily, mITT, P=0.49 vs placebo): −3.0 letters
patients experiencing a ≥2-line gain (≥10 letter) in LL BCVA ([3]; 40 mg subcutaneous once daily, P=0.0404 vs placebo): 14.6%
percentage of patients experiencing a >1-line gain ([3]; LL BCVA, vs placebo): higher compared to placebo
mean rate of macular photoreceptor loss compared with the untreated group ([4]; FIG. 3, MMRM, weeks 12, 24, 36 and 48): reduced mean rate of macular photoreceptor loss
decrease of the growth of photoreceptor loss ([4]; FIG. 3, change in tEZa from baseline, weeks 12 to 48, 40 mg subcutaneous once daily vs untreated): about 50%
clinical benefit in subjects who commenced therapy before developing measurable geographic atrophy (GA) [4, 7]: experienced clinical benefit
clinical benefit in subjects with non-central GA [4, 7]: experienced clinical benefit
reduction in progression of pEZa relative to placebo ([5]; LS mean change baseline to week 48): 47%
reduction in progression of tEZa relative to placebo ([5]; LS mean change baseline to week 48, macular percentage of tEZa): 43%
progression of GA area relative to the baseline boundary of total EZ attenuation ([5]; during the trial, elamipretide treated arm): GA area did not progress to the baseline boundary of total EZ attenuation
growth of partial EZ attenuation area during the trial ([5]; elamipretide arm, placebo arm 35%): 14%
growth of total EZ attenuation area (mm^2) during the trial ([5]; elamipretide arm, placebo arm 52%): 24%
rate of progression of the EZ-GA gap ([5]; post-hoc analysis): slower rate of progression
LS mean change from baseline to week 48 for macular percentage of tEZa (EZ-RPE thickness of 0 μm) ([5]; week 48, 40 mg subcutaneous once daily, P=0.0034 vs placebo): 3.69%
LS mean change from baseline to week 48 for pEZa (EZ-RPE thickness≤20 μm) ([5]; week 48, 40 mg subcutaneous once daily, P=0.0040 vs placebo): 4.10%
